According to patent US5798357A, “Agent for prophylaxis and treatment of thromboxane A2 -mediated diseases” (The Green Cross Corporation, priority 1994, dated 1998):
Counter-ions that a name gives are not always drawn. Like-named read-outs stand apart in the source and are kept apart here.

What was measured:
[1] = test system: rabbit platelets; assay: TXA2 release from rabbit platelets; type: cell-based; settings: Oryctolagus cuniculus, Platelet, 8 min, washed rabbit platelets, 37° C., read-out: TXA2 release suppressing action: amount necessary for 50% inhibition of TXA2 release
Method: TXA2 release from rabbit platelets Blood was taken from the carotid artery of normal rabbit using ethylenediaminetetraacetic acid (EDTA; 77 mM EDTA, 1/10 vol). The blood was centrifuged at 1800 rpm for 8 minutes and platelet rich plasma in the supernatant was recovered, which was then centrifuged at 3200 rpm for 8 minutes. The sediment (platelet) was washed with Tyrode-HEPES-EDTA buffer and centrifuged at 3200 rpm for 8 minutes. The sediment was suspended in Tyrode-HEPES buffer to prepare washed platelets (5×10^8 platelets/ml). 100% DMSO or a reagent (Compound A, 1.5 μl) was added to the washed platelets (270 μl) and the mixture was heated at 37° C. for 2 minutes. Then, collagen (10 μg/ml) and 1 mM Ca^2+ (or 1 mM Ca^2+ alone when investigating release from unstimulated platelets) were added and the experiment was started. After heating at 37° C. for 8 minutes, 10^-3 M indomethacin was added and the cuvette was placed in ice to stop the reaction. After centrifugation at 10,000 rpm for 10 minutes, the supernatant was taken and stored at -20° C. until used for the TXA2 determination. The TXA2 amount in the above Experimental Examples was measured as TXB2 (stable compound thereof) amount by the EIA method using TXB2 assay kit (manufactured by Amersham). | *1: amount necessary for 50% inhibition of TXA2 release (μM)

[2] = acute toxicity in dogs; settings: dog, in vivo, po, orally administered
[3] = target: T1, TXA2 synthetase (Homo sapiens, UniProt P24557); assay: inhibition of TXA2 synthetase by the use of human platelet microsome; type: biochemical; settings: read-out: IC50 (amount necessary to inhibit 50% of TXA2 synthesis) of TXA2 synthetase inhibitory action
T1 construct: human platelet microsome was used; from tissue; host or cells: human blood platelets, microsomal fraction
T1 sequence (P24557 1-533): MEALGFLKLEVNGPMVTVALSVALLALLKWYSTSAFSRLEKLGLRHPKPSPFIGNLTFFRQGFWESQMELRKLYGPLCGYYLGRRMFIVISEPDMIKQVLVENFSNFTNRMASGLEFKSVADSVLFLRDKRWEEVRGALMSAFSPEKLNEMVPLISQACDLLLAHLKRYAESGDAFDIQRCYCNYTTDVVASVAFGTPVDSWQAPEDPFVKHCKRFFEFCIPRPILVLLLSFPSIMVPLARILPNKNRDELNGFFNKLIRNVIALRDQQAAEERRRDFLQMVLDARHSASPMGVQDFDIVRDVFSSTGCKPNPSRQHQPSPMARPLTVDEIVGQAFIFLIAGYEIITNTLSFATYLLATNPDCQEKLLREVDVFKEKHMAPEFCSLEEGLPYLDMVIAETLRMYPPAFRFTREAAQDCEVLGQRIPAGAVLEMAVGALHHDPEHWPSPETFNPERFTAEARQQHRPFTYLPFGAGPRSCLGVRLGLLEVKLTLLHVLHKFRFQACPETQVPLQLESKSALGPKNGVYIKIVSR
Method: The TXA2 amount in the above Experimental Examples was measured as TXB2 (stable compound thereof) amount by the EIA method using TXB2 assay kit (manufactured by Amersham). inhibition of TXA2 synthetase by the use of human platelet microsome In the same manner as in Experimental Example 2 except that human platelet microsome was used instead of rabbit platelet microsome, the experiment was performed. Compound A, Compound B and Compound C were used as reagents.

[4] = acute toxicity in rats; settings: rat, in vivo, po, orally administered
[5] = target: T2, TXA2 synthetase (Oryctolagus cuniculus, UniProt G1TAZ9); assay: Inhibition of TXA2 synthetase using rabbit platelet microsome; type: biochemical; settings: PGH2 5 nmol, 22° C., 3 minutes, measured as TXB2 by EIA, read-out: TXA2 synthetase inhibitory action: amount necessary for 50% inhibition of TXA2 synthesis
T2 construct: to prepare a microsomal fraction; from tissue; host or cells: rabbit blood platelets, microsomal fraction
T2 sequence (G1TAZ9 1-530): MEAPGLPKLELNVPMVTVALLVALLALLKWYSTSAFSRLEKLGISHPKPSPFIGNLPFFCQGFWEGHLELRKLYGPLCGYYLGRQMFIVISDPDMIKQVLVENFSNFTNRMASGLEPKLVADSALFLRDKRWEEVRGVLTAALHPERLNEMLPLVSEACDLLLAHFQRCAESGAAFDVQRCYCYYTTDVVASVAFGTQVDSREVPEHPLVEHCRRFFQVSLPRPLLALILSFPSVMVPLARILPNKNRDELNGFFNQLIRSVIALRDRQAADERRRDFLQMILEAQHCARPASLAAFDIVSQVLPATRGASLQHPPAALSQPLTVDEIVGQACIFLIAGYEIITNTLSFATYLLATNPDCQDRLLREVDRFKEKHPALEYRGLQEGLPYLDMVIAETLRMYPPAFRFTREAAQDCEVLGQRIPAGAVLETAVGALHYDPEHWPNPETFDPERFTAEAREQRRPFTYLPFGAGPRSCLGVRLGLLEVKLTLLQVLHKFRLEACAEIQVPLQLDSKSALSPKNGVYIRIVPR
Method: Inhibition of TXA2 synthetase using rabbit platelet microsome
Blood was taken from the carotid artery of normal rabbit, using EDTA (77 mM EDTA, 1/10 vol). The blood was centrifuged at 1300 rpm for 10 minutes and platelet rich plasma in the supernatant was recovered, which was centrifuged at 3400 rpm for 15 minutes. The sediment was washed with physiological saline (original volume) and centrifuged at 3400 rpm for 15 minutes. Then, 0.05M Tris-HCl buffer (1 mM EDTA, pH 7.5, 3-fold weight of the wet weight of platelets) was added to the sediment and the mixture was homogenated (2 minutes, full speed) using polytron. The homogenate was centrifuged at 8300 rpm for 15 minutes (Tomy RD-20III, No. 3N) and the supernatant was centrifuged at […] for 1 hour (Beckman TL-100, TLA100.3). The sediment was suspended in 0.05M Tris-HCl buffer (1 mM EDTA, pH 7.5, one-third weight of the wet weight of platelets) to prepare a microsomal fraction. The fraction was stored at -80° C. until used for the experiment.
0.05M Tris-HCl buffer (pH 7.5, 890 μl), 100 μl of the above-mentionedmicrosome (85 μg protein) and 100% DMSO or the reagent (Compound A, 5 μl) were added and the mixture was preincubated at 22° C. for 3 minutes. […]
The TXA2 amount in the above Experimental Examples was measured as TXB2 (stable compound thereof) amount by the EIA method using TXB2 assay kit (manufactured by Amersham). […]

Cl.O=c1[nH]nc(OCCCc2ccc(Cl)cc2)c(NCc2cccnc2)c1Br [Compound A, 4-bromo-6-[3-(4-chlorophenyl)propoxy]-5-(3-pyridylmethylamino)-3(2H)-pyridazinone hydrochloride]
IC50 ([1]; not stimulated, 1 mM Ca2+ alone): 1000 nM
IC50 ([1]; stimulated with collagen (10 μg/ml), 1 mM Ca2+): 9 nM
LD50 [2]: ≥ 2000 mg/kg
IC50 [3]: 10 nM
LD50 [4]: ≥ 2000 mg/kg
IC50 [5]: 18 nM

O=c1[nH]nc(OCC[C@H](O)c2ccc(Cl)cc2)c(NCc2cccnc2)c1Br [Compound B, 4-bromo-6-[(3S)-(4-chlorophenyl)-3-hydroxypropoxy]-5-(3-pyridylmethylamino)-3(2H)-pyridazinone hydrochloride]
IC50 [3]: 20 nM

O=c1[nH]nc(OCC[C@@H](O)c2ccc(Cl)cc2)c(NCc2cccnc2)c1Br [Compound C, 4-bromo-6-[(3R)-(4-chlorophenyl)-3-hydroxypropoxy]-5-(3-pyridylmethylamino)-3(2H)-pyridazinone hydrochloride]
IC50 [3]: 30 nM
